Columns and labels:
[1] = system: HT-29; assay: Cytotoxicity against human HT29 cell line by methylene blue dye assay; assay type: functional, cell-based
[2] = biological target: T1, Tubulin (Homo sapiens) (UniProt P68371+Q9H4B7+P0DPH7+P68366+Q13509+Q71U36+P04350+Q3ZCM7+P07437+P68363+Q9BQE3+Q6PEY2+Q13885+Q9BVA1+Q9BUF5); assay: Inhibition of [3H]colchicine binding to tubulin at 5 uM; assay type: protein-complex assay
[3] = system: KB; assay: Cytotoxicity against human KB cell line by methylene blue dye assay; assay type: functional, cell-based
[4] = biological target: T1, Tubulin (Homo sapiens); assay: Inhibition of [3H]colchicine binding to tubulin at 1 uM; assay type: protein-complex assay
[5] = system: TSGH 9201; assay: Cytotoxicity against human TSGH cell line by methylene blue dye assay; assay type: functional, cell-based
[6] = system: MKN-45; assay: Cytotoxicity against human MKN45 cell line by methylene blue dye assay; assay type: functional, cell-based
[7] = system: KB; assay: Cytotoxicity against KB-VIN 10 cell line by methylene blue dye assay; assay type: functional, cell-based; details: Homo sapiens
[8] = biological target: Tubulin; assay: Inhibition of tubulin polymerization; assay type: functional, Homo sapiens
[9] = system: NCI-H460; assay: Cytotoxicity against human H460 cell line by methylene blue dye assay; assay type: functional, cell-based

Row | SMILES | IC50 [1] [nM] | inhibition [2] [%] | IC50 [3] [nM] | inhibition [4] [%] | IC50 [5] [nM] | IC50 [6] [nM] | IC50 [7] [nM] | IC50 [8] [nM] | IC50 [9] [nM]
1 | COc1ccc(S(=O)(=O)N2CCc3cccc(NC(C)=O)c32)cc1 | 51 | 86 | 89 | 57 | 103 | 61 | 90 | 1900 | 75
2 | COc1ccc(S(=O)(=O)N2CCc3cccc(NS(=O)(=O)c4ccccc4)c32)cc1 | – | – | 650 | – | – | 562 | – | – | –
3 | COc1ccc(S(=O)(=O)N2CCc3cccc(NC(=O)c4ccco4)c32)cc1 | 9.5 | 95 | 9.6 | 74 | 11.1 | 10.7 | 9.2 | 1200 | 9.8
4 | COc1ccc(S(=O)(=O)N2CCc3cccc(NC(=O)Oc4ccccc4)c32)cc1 | – | – | > 10000 | – | – | > 10000 | – | – | –
5 | COc1ccc(S(=O)(=O)N2CCc3cccc(NCc4ccccc4)c32)cc1 | > 10000 | – | > 10000 | – | > 10000 | > 10000 | > 10000 | > 5000 | > 10000
6 | COc1ccc(S(=O)(=O)N2CCc3cccc(NC(=O)c4ccc(F)cc4)c32)cc1 | 55 | 93 | 93 | 65 | 100 | 45 | 85 | 1500 | 95
7 | COc1ccc(S(=O)(=O)N2CCc3cccc(NS(=O)(=O)c4ccc(F)cc4)c32)cc1 | – | – | 1200 | – | – | 890 | – | – | –
8 | COc1ccc(S(=O)(=O)N2CCc3cccc(NC(=O)c4ccccc4)c32)cc1 | 192 | – | 297 | – | 201 | 250 | 180 | – | 257
9 | COc1ccc(S(=O)(=O)N2CCc3cccc(NC(=O)c4ccncc4)c32)cc1 | 8.6 | 96 | 9.6 | 78 | 10.8 | 8.8 | 8.9 | 1100 | 9.4
10 | COc1ccc(S(=O)(=O)N2CCc3cccc(NC(=O)C(C)(C)C)c32)cc1 | – | – | 359 | – | – | 289 | – | – | –
11 | COc1cc2c(c(OC)c1OC)-c1ccc(OC)c(=O)cc1[C@@H](NC(C)=O)CC2 [COLCHICINE] | – | – | 13.3 | – | – | 15 | 117 | – | –
12 | COC(=O)c1ccc(C(=O)Nc2cccc3c2N(S(=O)(=O)c2ccc(OC)cc2)CC3)cc1 | – | – | 376 | – | – | 312 | – | – | –
13 | COc1ccc(S(=O)(=O)N2CCc3cccc(N)c32)cc1 | – | – | 2800 | – | – | 1200 | – | – | –
14 | COc1ccc(S(=O)(=O)N2CCc3cccc(NC(=O)c4cccs4)c32)cc1 | 37 | 94 | 47 | 75 | 54 | 31 | 43 | 1700 | 49
15 | COc1ccc(S(=O)(=O)N2CCc3cc(Br)cc(NC(=O)c4ccncc4)c32)cc1 | – | – | 91 | – | – | 86 | – | – | –
16 | COc1ccc(S(=O)(=O)N2CCc3cccc(NC(=O)N(C)c4ccccc4)c32)cc1 | – | – | > 10000 | – | – | > 10000 | – | – | –
17 | COc1ccc(S(=O)(=O)N2CCc3cccc(NC(=O)c4ccc([N+](=O)[O-])cc4)c32)cc1 | 65 | 91 | 102 | 62 | 116 | 95 | 95 | 1900 | 122
18 | COc1ccc(S(=O)(=O)N2CCc3cccc(NS(=O)(=O)c4ccc([N+](=O)[O-])cc4)c32)cc1 | – | – | 1100 | – | – | 933 | – | – | –
19 | COc1ccc(S(=O)(=O)N2CCc3cc(Br)cc(NC(=O)c4ccco4)c32)cc1 | – | – | 89 | – | – | 78 | – | – | –
20 | COc1ccc(S(=O)(=O)N2CCc3cccc(NC(=O)c4ccc(C#N)cc4)c32)cc1 | – | – | 105 | – | – | 89 | – | – | –
21 | COc1ccc(C(=O)Nc2cccc3c2N(S(=O)(=O)c2ccc(OC)cc2)CC3)cc1 | – | – | 2600 | – | – | 1600 | – | – | –

Source: ChEMBL document CHEMBL1137315, “7-Aroyl-aminoindoline-1-sulfonamides as a novel class of potent antitubulin agents” (J Med Chem, 2006)
